Reference: ChEMBL document CHEMBL1151687, “Search for alpha-helical propensity in the receptor-bound conformation of glucagon-like peptide-1” (Bioorg Med Chem, 2008)
Positions of bridges follow the written chain, without caps; N, C: chain ends. Residues, ends and D or L forms follow the SMILES beside them.

Assays:
[1] = target: T1, Glucagon-like peptide 1 receptor (Homo sapiens, UniProt P43220); assay: Displacement of [125I]exendin(9-39) from human GLP1R expressed in HEK293 cells; assay type: cell-based
T1 sequence (P43220 whole entry): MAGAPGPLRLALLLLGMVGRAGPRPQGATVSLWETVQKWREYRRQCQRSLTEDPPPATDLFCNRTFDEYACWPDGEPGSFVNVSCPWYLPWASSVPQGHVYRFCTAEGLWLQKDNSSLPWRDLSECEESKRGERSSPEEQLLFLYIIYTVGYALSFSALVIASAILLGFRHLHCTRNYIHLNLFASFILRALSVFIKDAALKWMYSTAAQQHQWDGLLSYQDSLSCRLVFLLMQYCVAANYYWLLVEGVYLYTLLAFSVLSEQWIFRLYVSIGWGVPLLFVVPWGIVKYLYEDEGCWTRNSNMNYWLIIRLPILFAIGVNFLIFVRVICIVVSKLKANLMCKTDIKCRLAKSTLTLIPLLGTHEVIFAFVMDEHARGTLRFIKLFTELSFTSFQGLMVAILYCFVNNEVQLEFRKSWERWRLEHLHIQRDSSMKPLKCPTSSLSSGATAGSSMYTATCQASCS

[2] = target: T1, Glucagon-like peptide 1 receptor; assay: Activation of human GLP1R expressed in HEK293 cells assessed as effect on cAMP responsive element promoter driven luciferase expression; assay type: functional, cell-based

Row | SMILES | IC50 [1] [nM] | EC50 [2] [nM] | IC50 ([1]; hek293) [nM] | EC50 ([2]; hek293) [nM]
1 | CC[C@H](C)[C@H](NC(=O)[C@H](CCC(=O)O)NC(=O)[C@H](CCCCN)NC(=O)[C@H](C)NC(=O)[C@H](C)NC(=O)[C@H](CCC(N)=O)NC(=O)CNC(=O)[C@H](CCC(=O)O)NC(=O)[C@H](CCC(N)=O)NC(=O)[C@H](Cc1ccc(O)cc1)NC(=O)[C@H](CO)NC(=O)[C@H](CO)NC(=O)[C@H](CCCCNC(C)=O)NC(=O)[C@H](CC(=O)O)NC(=O)[C@H](CO)NC(=O)[C@@H](NC(=O)[C@H](Cc1ccccc1)NC(=O)[C@@H](NC(=O)CNC(=O)[C@H](CCC(=O)O)NC(=O)[C@H](C)NC(=O)[C@@H](N)Cc1cnc[nH]1)[C@@H](C)O)[C@@H](C)O)C(=O)N[C@@H](Cc1ccccc1)C(=O)N[C@@H](C)C(=O)N[C@@H](Cc1c[nH]c2ccccc12)C(=O)N[C@@H](CC(C)C)C(=O)N[C@H](C(=O)N[C@@H](CCCCN)C(=O)NCC(=O)N[C@@H](CCCN=C(N)N)C(N)=O)C(C)C | 6.6 | 0.012 |  | 
2 | CC[C@H](C)[C@H](NC(=O)[C@H](CCC(=O)O)NC(=O)[C@H](CCCCN)NC(=O)[C@H](C)NC(=O)[C@H](C)NC(=O)[C@H](CCC(N)=O)NC(=O)CNC(=O)[C@H](CCC(=O)O)NC(=O)[C@H](CC(C)C)NC(=O)[C@H](Cc1ccc(O)cc1)NC(=O)[C@H](CO)NC(=O)[C@H](CO)NC(=O)[C@@H](NC(=O)[C@H](CCC(N)=O)NC(=O)[C@H](CO)NC(=O)[C@@H](NC(=O)[C@H](Cc1ccccc1)NC(=O)[C@H](CCCCNC(C)=O)NC(=O)CNC(=O)[C@H](CCC(=O)O)NC(=O)[C@H](C)NC(=O)[C@@H](N)Cc1cnc[nH]1)[C@@H](C)O)C(C)C)C(=O)N[C@@H](Cc1ccccc1)C(=O)N[C@@H](C)C(=O)N[C@@H](Cc1c[nH]c2ccccc12)C(=O)N[C@@H](CC(C)C)C(=O)N[C@H](C(=O)N[C@@H](CCCCN)C(=O)NCC(=O)N[C@@H](CCCN=C(N)N)C(N)=O)C(C)C (H-HAEGK(Ac)FTSQVSSYLEGQAAKEIFAWLVKGR-NH2) | 440 | 24 |  | 
3 | CC[C@H](C)[C@H](NC(=O)[C@H](Cc1ccccc1)NC(=O)[C@H](CCC(=O)O)NC(=O)[C@H](CCCCN)NC(=O)[C@H](C)NC(=O)[C@H](C)NC(=O)[C@H](CCC(N)=O)NC(=O)CNC(=O)[C@H](CCC(=O)O)NC(=O)[C@H](CC(C)C)NC(=O)[C@H](Cc1ccc(O)cc1)NC(=O)[C@H](CO)NC(=O)[C@H](CO)NC(=O)[C@@H](NC(=O)[C@@H]1CCC(=O)NCCCC[C@H](NC(=O)CNC(=O)[C@H](CCC(=O)O)NC(=O)[C@H](C)NC(=O)[C@@H](N)Cc2cnc[nH]2)C(=O)N[C@@H](Cc2ccccc2)C(=O)N[C@@H]([C@@H](C)O)C(=O)N[C@@H](CO)C(=O)N1)C(C)C)C(=O)N[C@@H](C)C(=O)N[C@@H](Cc1c[nH]c2ccccc12)C(=O)N[C@@H](CC(C)C)C(=O)N[C@H](C(=O)N[C@@H](CCCCN)C(=O)NCC(=O)N[C@@H](CCCNC(=N)N)C(N)=O)C(C)C (H-HAEGKFTSEVSSYLEGQAAKEFIAWLVKGR-NH2; lactam 5-9) |  |  | 110 | 0.38
4 | CC[C@H](C)[C@H](NC(=O)[C@H](CCC(=O)O)NC(=O)[C@H](CCCCN)NC(=O)[C@H](C)NC(=O)[C@H](C)NC(=O)[C@H](CCC(N)=O)NC(=O)CNC(=O)[C@H](CCC(=O)O)NC(=O)[C@H](CC(C)C)NC(=O)[C@H](Cc1ccc(O)cc1)NC(=O)[C@H](CCC(N)=O)NC(=O)[C@H](CO)NC(=O)[C@@H](NC(=O)[C@H](CC(=O)O)NC(=O)[C@H](CCCCNC(C)=O)NC(=O)[C@@H](NC(=O)[C@H](Cc1ccccc1)NC(=O)[C@@H](NC(=O)CNC(=O)[C@H](CCC(=O)O)NC(=O)[C@H](C)NC(=O)[C@@H](N)Cc1cnc[nH]1)[C@@H](C)O)[C@@H](C)O)C(C)C)C(=O)N[C@@H](Cc1ccccc1)C(=O)N[C@@H](C)C(=O)N[C@@H](Cc1c[nH]c2ccccc12)C(=O)N[C@@H](CC(C)C)C(=O)N[C@H](C(=O)N[C@@H](CCCCN)C(=O)NCC(=O)N[C@@H](CCCN=C(N)N)C(N)=O)C(C)C (H-HAEGTFTK(Ac)DVSQYLEGQAAKEIFAWLVKGR-NH2) | 230 | 16 |  | 
5 | CC[C@H](C)[C@H](NC(=O)[C@H](Cc1ccccc1)NC(=O)[C@H](CCC(=O)O)NC(=O)[C@H](CCCCN)NC(=O)[C@H](C)NC(=O)[C@H](C)NC(=O)[C@H](CCC(N)=O)NC(=O)CNC(=O)[C@H](CCC(=O)O)NC(=O)[C@H](CC(C)C)NC(=O)[C@H](Cc1ccc(O)cc1)NC(=O)[C@@H]1CCC(=O)NCCCC[C@H](NC(=O)[C@@H](NC(=O)[C@H](Cc2ccccc2)NC(=O)[C@@H](NC(=O)CNC(=O)[C@H](CCC(=O)O)NC(=O)[C@H](C)NC(=O)[C@@H](N)Cc2cnc[nH]2)[C@@H](C)O)[C@@H](C)O)C(=O)N[C@@H](CC(=O)O)C(=O)N[C@@H](C(C)C)C(=O)N[C@@H](CO)C(=O)N1)C(=O)N[C@@H](C)C(=O)N[C@@H](Cc1c[nH]c2ccccc12)C(=O)N[C@@H](CC(C)C)C(=O)N[C@H](C(=O)N[C@@H](CCCCN)C(=O)NCC(=O)N[C@@H](CCCNC(=N)N)C(N)=O)C(C)C (H-HAEGTFTKDVSEYLEGQAAKEFIAWLVKGR-NH2; lactam 8-12) |  |  | 210 | 8.4
6 | CC[C@H](C)[C@H](NC(=O)[C@H](Cc1ccccc1)NC(=O)[C@H](CCC(=O)O)NC(=O)[C@H](CCCCN)NC(=O)[C@H](C)NC(=O)[C@H](C)NC(=O)[C@H](CCC(N)=O)NC(=O)CNC(=O)[C@H](CCC(=O)O)NC(=O)[C@@H]1CSSC[C@H](NC(=O)[C@H](CC(=O)O)NC(=O)[C@H](CO)NC(=O)[C@@H](NC(=O)[C@H](Cc2ccccc2)NC(=O)[C@@H](NC(=O)CNC(=O)[C@H](CCC(=O)O)NC(=O)[C@H](C)NC(=O)[C@@H](N)Cc2cnc[nH]2)[C@@H](C)O)[C@@H](C)O)C(=O)N[C@@H](CO)C(=O)N[C@@H](CO)C(=O)N[C@@H](Cc2ccc(O)cc2)C(=O)N1)C(=O)N[C@@H](C)C(=O)N[C@@H](Cc1c[nH]c2ccccc12)C(=O)N[C@@H](CC(C)C)C(=O)N[C@H](C(=O)N[C@@H](CCCCN)C(=O)NCC(=O)N[C@@H](CCCNC(=N)N)C(N)=O)C(C)C (H-HAEGTFTSDCSSYCEGQAAKEFIAWLVKGR-NH2; disulfide 10-14) |  |  |  | 19
7 | CC[C@H](C)[C@H](NC(=O)[C@H](CCC(=O)O)NC(=O)[C@H](CCCCN)NC(=O)[C@H](C)NC(=O)[C@H](C)NC(=O)[C@H](CCC(N)=O)NC(=O)CNC(=O)[C@H](CCC(=O)O)NC(=O)[C@H](CS)NC(=O)[C@H](Cc1ccc(O)cc1)NC(=O)[C@H](CO)NC(=O)[C@H](CO)NC(=O)[C@H](CS)NC(=O)[C@H](CC(=O)O)NC(=O)[C@H](CO)NC(=O)[C@@H](NC(=O)[C@H](Cc1ccccc1)NC(=O)[C@@H](NC(=O)CNC(=O)[C@H](CCC(=O)O)NC(=O)[C@H](C)NC(=O)[C@@H](N)Cc1cnc[nH]1)[C@@H](C)O)[C@@H](C)O)C(=O)N[C@@H](Cc1ccccc1)C(=O)N[C@@H](C)C(=O)N[C@@H](Cc1c[nH]c2ccccc12)C(=O)N[C@@H](CC(C)C)C(=O)N[C@H](C(=O)N[C@@H](CCCCN)C(=O)NCC(=O)N[C@@H](CCCNC(=N)N)C(N)=O)C(C)C (H-HAEGTFTSDCSSYCEGQAAKEIFAWLVKGR-NH2) |  | 1.4 |  | 
8 | CC[C@H](C)[C@H](NC(=O)[C@H](Cc1ccccc1)NC(=O)[C@H](CCC(=O)O)NC(=O)[C@H](CCCCN)NC(=O)[C@H](C)NC(=O)[C@H](C)NC(=O)[C@H](CCC(N)=O)NC(=O)CNC(=O)[C@H](CCC(=O)O)NC(=O)[C@@H]1CCC(=O)NCCCC[C@H](NC(=O)[C@H](CC(=O)O)NC(=O)[C@H](CO)NC(=O)[C@@H](NC(=O)[C@H](Cc2ccccc2)NC(=O)[C@@H](NC(=O)CNC(=O)[C@H](CCC(=O)O)NC(=O)[C@H](C)NC(=O)[C@@H](N)Cc2cnc[nH]2)[C@@H](C)O)[C@@H](C)O)C(=O)N[C@@H](CO)C(=O)N[C@@H](CO)C(=O)N[C@@H](Cc2ccc(O)cc2)C(=O)N1)C(=O)N[C@@H](C)C(=O)N[C@@H](Cc1c[nH]c2ccccc12)C(=O)N[C@@H](CC(C)C)C(=O)N[C@H](C(=O)N[C@@H](CCCCN)C(=O)NCC(=O)N[C@@H](CCCNC(=N)N)C(N)=O)C(C)C (H-HAEGTFTSDKSSYEEGQAAKEFIAWLVKGR-NH2; lactam 10-14) | 4.5 | 0.0075 |  | 
9 | CC[C@H](C)[C@H](NC(=O)[C@H](Cc1ccccc1)NC(=O)[C@H](CCC(=O)O)NC(=O)[C@H](CCCCN)NC(=O)[C@H](C)NC(=O)[C@H](C)NC(=O)[C@H](CCC(N)=O)NC(=O)CNC(=O)[C@H](CCC(=O)O)NC(=O)[C@@H]1CCC(=O)NCCCC[C@H](NC(=O)[C@H](CC(=O)O)NC(=O)[C@H](CO)NC(=O)[C@@H](NC(=O)[C@H](Cc2ccccc2)NC(=O)[C@@H](NC(=O)CNC(=O)[C@H](CCC(=O)O)NC(=O)[C@H](C)NC(=O)[C@@H](N)Cc2cnc[nH]2)[C@@H](C)O)[C@@H](C)O)C(=O)N[C@@H](CO)C(=O)N[C@@H](CO)C(=O)N[C@@H](Cc2ccc(O)cc2)C(=O)N1)C(=O)N[C@H]1CCCCNC(=O)CC[C@@H](C(=O)NCC(=O)N[C@@H](CCCNC(=N)N)C(N)=O)NC(=O)[C@H](C(C)C)NC(=O)[C@H](CC(C)C)NC(=O)[C@H](Cc2c[nH]c3ccccc23)NC1=O (H-HAEGTFTSDKSSYEEGQAAKEFIKWLVEGR-NH2; lactam 10-14, 24-28) |  | 0.0033 |  | 
10 | CC[C@H](C)[C@H](NC(=O)[C@H](CCC(=O)O)NC(=O)[C@H](CCCCN)NC(=O)[C@H](C)NC(=O)[C@H](C)NC(=O)[C@H](CCC(N)=O)NC(=O)CNC(=O)[C@H](CCC(=O)O)NC(=O)[C@H](CC(C)C)NC(=O)[C@H](Cc1ccc(O)cc1)NC(=O)[C@H](CO)NC(=O)[C@H](CO)NC(=O)[C@@H](NC(=O)[C@H](CC(=O)O)NC(=O)[C@H](CO)NC(=O)[C@@H](NC(=O)[C@H](Cc1ccccc1)NC(=O)[C@@H](NC(=O)CNC(=O)[C@H](CCC(=O)O)NC(=O)[C@H](C)NC(=O)[C@@H](N)Cc1cnc[nH]1)[C@@H](C)O)[C@@H](C)O)C(C)C)C(=O)N[C@@H](Cc1ccccc1)C(=O)N[C@@H](CCCCNC(C)=O)C(=O)N[C@@H](Cc1c[nH]c2ccccc12)C(=O)N[C@@H](CC(C)C)C(=O)N[C@H](C(=O)N[C@@H](CCC(N)=O)C(=O)NCC(=O)N[C@@H](CCCN=C(N)N)C(N)=O)C(C)C (H-HAEGTFTSDVSSYLEGQAAKEIFK(Ac)WLVQGR-NH2) |  |  |  | 0.0048
